Assay results as given in ChEMBL document CHEMBL1152286, “Pyrrospirones A and B, apoptosis inducers in HL-60 cells, from an endophytic fungus, Neonectria ramulariae Wollenw KS-246” (Bioorg Med Chem Lett, 2008).
pIC50: −log10 of the molar value. Active and inactive are the calls of the source. No cut-off for these calls is given here.

Assays:
Assay type in all cases: functional, cell-based
HL-60 [1] = experiment: Cytotoxicity against human HL60 cells by MTT assay
K562 = experiment: Cytotoxicity against human K562 cells by MTT assay
LNCaP = experiment: Cytotoxicity against human LNCAP cells by MTT assay
HL-60 [2] = experiment: Induction of apoptosis in human HL60 cells assessed as DNA fragmentation at 30 uM after 18 hrs by agarose-gel electrophoresis

Compound	pIC50 (HL-60 [1])	pIC50 (K562)	pIC50 (LNCaP)	Activity (HL-60 [2])
C=C[C@@H]1C=C(C)[C@H]2[C@@H]3[C@H](Oc4ccc(cc4)C[C@@]4(O)C=C(C(=O)N4)C(=O)[C@@H]13)[C@@H]1[C@@H](C)C[C@@H](C)C[C@]12C [PYRROSPIRONE C]	6.92	6.35	6.32	
CC1=C[C@H]2[C@@H]3C(=O)[C@]4(C[C@@H]2O)C[C@](O)(Cc2ccc(cc2)O[C@H]2[C@H]3[C@@H]1[C@]1(C)C[C@H](C)C[C@H](C)[C@@H]21)NC4=O [PYRROSPIRONE B]	5.13	5.03	4.69	Active
CC1=C[C@H]2[C@@H]3C(=O)[C@]4(C[C@H]2O)C[C@](O)(Cc2ccc(cc2)O[C@H]2[C@H]3[C@@H]1[C@]1(C)C[C@H](C)C[C@H](C)[C@@H]21)NC4=O [PYRROSPIRONE A]	4.83	5.00	4.75	Active
C=C[C@@H]1C=C(C)[C@H]2[C@@H]3[C@H](Oc4ccc(cc4)C[C@@]4(O)C[C@H](C(=O)N4)C(=O)[C@@H]13)[C@@H]1[C@@H](C)C[C@@H](C)C[C@]12C [PYRROSPIRONE D]	5.16	5.06	4.93	
